# In publication PMC9176662, “Design, synthesis, molecular modeling and biological evaluation of novel Benzoxazole-Benzamide conjugates via a 2-Thioacetamido linker as potential anti-proliferative agents, VEGFR-2 inhibitors and apoptotic inducers” (Journal of Enzyme Inhibition and Medicinal Chemistry, 2022):
# Legend:
# HCT-116 cells [1] = experiment: Anti-proliferative activity, SRB assay, HCT-116; type: cell-based, human; conditions: for IC50: SRB assay, 72 h exposure, mean ± SD of three separate experiments; for HCT-116 SI (selectivity index): ratio of IC50 for normal cells (WI-38) to IC50 for HCT-116
# Text: (§1) Several of these derivatives were reported as acting as competitive inhibitors of different tyrosine kinases, with potent cytotoxic activity against various cell lines[58]^,[59]. […] Thus, in this study a novel series of benzoxazole-benzamide conjugates was initially evaluated for their potential anti-cancer activity against colon cancer cell line (HCT-116), breast cancer cell line (MCF-7) and normal human fibroblasts (WI-38), using the Sulforhodamine B colorimetric (SRB) assay.
# (§2) 2.1. Anti-proliferative activity against HCT-116 and MCF-7 human cancer cells lines.
# (§3) The sulforhodamine B (SRB) assays were performed according to Skehan et al..
# (§4) Briefly, exponentially growing cells were trypsinized, counted and seeded at the appropriate densities (5000 cells/100 μL/ well) into 96-well microtiter plates. Cells were incubated in a humidified atmosphere at 37 °C for 24 h. Then, the cells were exposed to the tested compounds at the desired concentrations (0.01, 0.1, 1, 10, and 100 μM) or to 1% dimethyl sulfoxide (DMSO) for 72 h. At the end of the treatment period, the media were removed, and the cells were fixed with 10% trichloroacetic acid at 4 °C for 1 h. Following, the cells were washed with tap water four times and incubated with SRB 0.4% for 30 min. Excess dye was removed by washing repeatedly with 1% (vol/vol) acetic acid. The protein-bound dye was dissolved in 10 mM Tris base solution for (optical density) OD determination at 510 nm using a Spectra Max plus Microplate Reader (Molecular Devices, CA). Cell viability was expressed relative to the untreated control cells. […]
# WI-38 cells = experiment: Cytotoxicity against normal fibroblasts, SRB assay, WI-38; type: cell-based; conditions: normal human fibroblasts, 72 h, mean ± SD of three separate experiments
# Text: as §1, §2, §3, §4
# HCT-116 cells [2] = experiment: Annexin V-FITC/PI apoptosis assay, HCT-116; type: cell-based, human; conditions: for increase in total apoptosis compared to the control: HCT-116; for %Apoptosis %Early / %Apoptosis %Late / %Necrosis: HCT-116, 48 h incubation; for %Apoptosis %Early: control 1.1; for %Apoptosis %Late: control 1.57; for %Necrosis: control 1.85
# Experimental: (§5) 2.4. Annexin V-FITC/PI apoptosis assay.
# (§6) For this study, annexin V-FITC / PI apoptosis detection kit was used; HCT -116 and MCF-7 cells were stained with annexin V fluorescein isothiocyanate (FITC) and propidium iodide (PI) counter-stained.1 x 10^5 HCT-116 cells were 48 h incubated with compound 1 or 11, trypsinized, washed with phosphate-buffered saline (PBS), stained in the dark at 37 °C for 15 min utes.
# (§7) Finally, the cells analyzed with a cytometer of FACS Caliber flow.
# MCF-7 cells = experiment: Annexin V-FITC/PI apoptosis assay, MCF-7; type: cell-based, human; conditions: for %Apoptosis %Early: control 0.47; for %Apoptosis %Late: control 1.34; for %Necrosis: control 1.6; for %Apoptosis %Total: control 3.41
# Experimental: as §5, §6, §7
# Bcl-2 = experiment: Western blot of Bcl-2 expression in HCT-116; type: cell-based, human; conditions: HCT-116, Western blot, normalised to β-actin
# Text: (§8) It is well known that the anti-apoptotic proteins Bcl-2 and Bcl-xL are mainly overexpressed in various types of cancer, causing survival of cancer cells and/or drug resistance. Therefore, inhibition of these proteins expression leads to cancer cell death and has been used as a strategy for anticancer drug development. In this study, the impact of compounds 1 and 11 on Bcl-2 and Bcl-xL expression in HCT-116 and MCF-7 cancer cell lines was examined using Western blot analysis and all the data were normalised to β-actin (Figure 9).
# (§9) 2.5. Impact of compounds 1 and 11 on the level of anti-apoptotic markers (Bcl-2, and Bcl-xL).
# (§10) Gel electrophoresis and immuno-blot analysis of proteins (Western Blot) method was used to examine the effect of compounds 1 and 11 on the level of anti-apoptotic markers (Bcl-2, and Bcl-xL). […]
# (§11) The cells were then immediately frozen at −20 °C for 1 h for further lysis and collected by cell scraper and sonicated 2×10s. Total protein concentrations were determined colorimetrically using Bradford method before proceeding to the western blotting. […] Briefly, the membranes were incubated for 1 min with a mixture of equal volumes from ECL solution A and ECL solution B. The chemiluminescent signals were captured using a CCD camera-based imager (Chemi Doc imager, Biorad, USA), and the band intensities were then measured with β-actin as an internal reference protein. […]
# Bcl-xL = experiment: Western blot of Bcl-xL expression in MCF-7; type: cell-based, human; conditions: MCF-7, Western blot, normalised to β-actin
# Text: as §8, §9, §10, §11
"IC50 (HCT-116 cells [1]; Homo sapiens, HCT-116, 72 h)",IC50 (HCT-116 cells [1]),SMILES,HCT-116 SI (selectivity index) (HCT-116 cells [1]),IC50 (WI-38 cells),increase in total apoptosis compared to the control (HCT-116 cells [2]),%Apoptosis %Early (HCT-116 cells [2]),%Apoptosis %Late (HCT-116 cells [2]),%Necrosis (HCT-116 cells [2]),total increase in apoptosis compared to the control (MCF-7 cells),%Apoptosis %Early (MCF-7 cells),%Apoptosis %Late (MCF-7 cells),%Necrosis (MCF-7 cells),%Apoptosis %Total (MCF-7 cells),Bcl-2 expression (Bcl-2),Bcl-xL expression (Bcl-xL)
7.2 ± 0.01 µM,7.8 ± 0.015 µM,O=C(CSc1nc2ccccc2o1)Nc1ccc(C(=O)NC2CCCCC2)cc1 [Compound 1],5.3,41.9 ± 0.27 µM,approximately 3.4 fold,4.86%,8.95%,1.55%,approximately 5.8 fold,6.02%,12.17%,1.59%,19.78%,inhibited,inhibited
12.2 ± 0.007 µM,,O=C(CSc1nc2cc(Cl)ccc2o1)Nc1ccc(C(=O)Nc2ccc(Cl)cc2)cc1 [Compound 11],8.5,103.5 ± 0.7 µM,~3.9 fold,6.01%,9.62%,1.78%,~5.0 fold,4.93%,10.26%,1.74%,16.93%,inhibited,inhibited
